Data published in patent publication US11286256B2, “Bicyclic inhibitors of histone deacetylase” (Alkermes, Inc., priority 2017, dated 2022).

Tests used:
HDAC1 = target: T1, HDAC1 (Homo sapiens, UniProt Q13547); assay: HDAC1 recombinant enzymatic assay; type: biochemical; details: 5 h pre-incubation, 5 nM enzyme; read-out: HDAC recombinant enzymatic IC50 HDAC1
T1 construct: purchased BPS Bioscience
Method: The following describes an assay protocol for measuring the deacetylation of a peptide substrate by the enzymes HDAC2 or HDAC1.
All recombinant human HDACs were purchased from BPS Bioscience. The substrate, FAM-TSRHK(AC)KL-CONH, was synthesized at NanoSyn. Final assay reactions contained 100 mM HEPES (pH 7.5), 50 mM KCl, 0.1% BSA, 0.01% Triton X-100, 1% DMSO, 1 uM substrate and 5 nM HDAC enzyme. Enzyme and compounds were pre-incubated at 25° C. for 5 hours and reactions were initiated by addition of substrate. 10 uL reactions were incubated for 17 hours at 25° C. and terminated by the addition of 40 uL of buffer containing 100 mM HEPES (pH 7.5), 0.1% BSA, 0.01% Triton X-100 and 0.05% SDS. Substrate and product peptides present in each sample were separated electrophoretically using the LabChip 3000 capillary electrophoresis instrument. Change in the relative fluorescence intensity of the substrate and product peaks reflects enzyme activity. Reaction progress was determined as the product to sum ratio (PSR):P/(S+P), where P is the peak height of the product peptide and S is the peak height of the substrate peptide. Reactions were performed in duplicate at 12 concentrations, (3× serial dilutions starting at 30 uM). IC50 values were calculated using a 4 Parameter Logistic Model.

CYP2D6 = target: T2, CYP2D6 (Homo sapiens, UniProt P10635); assay: CYP inhibition assay in human liver microsomes (2D6); type: in vitro ADME; details: for inhibition at 10 min, 10 µM: human liver microsomes; for inhibition of CYP2D6 (in words): 10 μM
T2 construct: Human liver microsomes were obtained from BD Gentest; tissue BD Gentest; host or cells: human liver microsomes
Method: (§1) Compounds were tested to evaluate their inhibitory potential on CYP2D6 and CYP3A4 (midazolam) using human liver microsomes. Human liver microsomes were obtained from BD Gentest, and each compound was run in duplicate.
(§2) The test compounds and reference inhibitors (quinidine for 2D6, ketoconazole for 3A4) were plated in a 96-well plate by transferring 8 μL of 10 mM stock solutions of compound in DMSO to 12 μL of acetonitrile. Individual inhibitor spiking solutions were prepared for CYP2D6 and CYP3A4 (8 μL of DMSO stock added to 12 μL of acetonitrile). Next added 400 μL of 0.2 mg/mL HLM to the assay wells and then added 2 μL of 400× test compound into the designated wells on ice. Next, added 200 μL of 0.2 mg/mL HLM to the assay wells and then added 1 μL of reference inhibitor solutions into the designated wells. The following solutions were added (in duplicate) to a 96-well assay plate on ice: The test compounds and reference inhibitors (quinidine for 2D6, ketoconazole for 3A4) were tested using the following experimental procedure:
(§3) 10. Incubate the assay plate at 37° C. 5 min for 3A4, 10 min for 2D6.
(§4) 11. Stop the reaction by adding 120 μL of ACN containing Internal Standard. For CYP3A4, the internal standard is 1′OH-midazolam-D4 (10 μM solution diluted to a final concentration of 0.1 μM by adding 100 μL internal standard stock to 10 mL ACN). For CYP2D6, the internal standard is 1-OH-Bufuralol-maleate-[D9] (49 μM solution diluted to a final concentration of 0.1 μM by adding 20 μL internal standard stock to 10 mL ACN).
(§5) The assessment on CYP isoform inhibition is as follows based on the assay results: if percentage of CYP inhibition is higher than 50%, indicates potent inhibition; if percentage of CYP inhibition is between 30-50%, indicates […]; if percentage of CYP inhibition is less than 30%, indicates slight or no inhibition. If the percentage of CYP inhibition is less than −30%, this indicates the compound may have some kind of activation of this isoform.

CYP3A4 = target: T3, CYP3A4 (Homo sapiens, UniProt P08684); assay: CYP inhibition assay in human liver microsomes (3A4, midazolam); type: in vitro ADME; details: for inhibition at 5 min, 10 µM: probe midazolam, human liver microsomes, midazolam
T3 construct: Human liver microsomes were obtained from BD Gentest; tissue BD Gentest; host or cells: human liver microsomes
Method: as §1, §2, §3, §4, §5

T2 sequence (P10635 whole entry): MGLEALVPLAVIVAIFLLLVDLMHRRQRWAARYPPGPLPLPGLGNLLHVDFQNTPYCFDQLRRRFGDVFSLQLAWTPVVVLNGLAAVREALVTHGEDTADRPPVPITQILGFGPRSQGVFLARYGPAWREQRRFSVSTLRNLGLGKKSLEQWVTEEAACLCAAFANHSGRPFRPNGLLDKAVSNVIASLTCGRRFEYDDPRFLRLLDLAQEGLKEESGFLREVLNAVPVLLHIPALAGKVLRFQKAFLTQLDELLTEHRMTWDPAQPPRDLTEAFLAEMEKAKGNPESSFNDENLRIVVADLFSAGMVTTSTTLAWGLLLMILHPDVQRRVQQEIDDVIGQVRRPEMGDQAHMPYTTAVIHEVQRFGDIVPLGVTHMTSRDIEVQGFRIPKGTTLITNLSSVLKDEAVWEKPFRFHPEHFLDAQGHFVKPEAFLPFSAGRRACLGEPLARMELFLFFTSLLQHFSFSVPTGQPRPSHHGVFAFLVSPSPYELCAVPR
T3 sequence (P08684 whole entry): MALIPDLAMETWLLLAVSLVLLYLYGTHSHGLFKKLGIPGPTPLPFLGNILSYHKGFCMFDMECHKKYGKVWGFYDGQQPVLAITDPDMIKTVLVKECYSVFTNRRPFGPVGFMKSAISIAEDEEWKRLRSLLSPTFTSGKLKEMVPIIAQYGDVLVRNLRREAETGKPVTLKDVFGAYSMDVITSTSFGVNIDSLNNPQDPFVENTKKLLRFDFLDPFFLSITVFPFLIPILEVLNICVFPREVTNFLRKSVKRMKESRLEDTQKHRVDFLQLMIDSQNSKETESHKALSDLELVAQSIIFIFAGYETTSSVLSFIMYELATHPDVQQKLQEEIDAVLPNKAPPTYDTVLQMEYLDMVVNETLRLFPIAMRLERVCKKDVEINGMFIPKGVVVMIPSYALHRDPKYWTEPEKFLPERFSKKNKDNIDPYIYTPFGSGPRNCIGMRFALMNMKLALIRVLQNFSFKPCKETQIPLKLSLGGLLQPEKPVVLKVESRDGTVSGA
T1 sequence (Q13547 whole entry): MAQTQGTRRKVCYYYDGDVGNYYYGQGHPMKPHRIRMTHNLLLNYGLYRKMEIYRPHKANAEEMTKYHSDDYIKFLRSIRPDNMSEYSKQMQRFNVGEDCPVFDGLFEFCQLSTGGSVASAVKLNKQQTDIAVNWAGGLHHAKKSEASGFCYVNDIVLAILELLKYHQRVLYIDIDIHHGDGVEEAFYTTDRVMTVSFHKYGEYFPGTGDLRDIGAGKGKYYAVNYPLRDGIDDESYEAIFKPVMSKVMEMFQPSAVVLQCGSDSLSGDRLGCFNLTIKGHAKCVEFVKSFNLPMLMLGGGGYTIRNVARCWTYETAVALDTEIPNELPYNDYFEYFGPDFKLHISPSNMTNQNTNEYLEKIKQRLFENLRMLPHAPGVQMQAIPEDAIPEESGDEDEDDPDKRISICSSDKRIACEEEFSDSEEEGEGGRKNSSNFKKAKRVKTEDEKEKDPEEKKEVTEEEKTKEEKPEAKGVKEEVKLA

| SMILES | IC50 (HDAC1) [nM] | inhibition at 10 min, 10 µM (CYP2D6) [%] | inhibition at 5 min, 10 µM (CYP3A4) [%] | inhibition of CYP2D6 (in words) (CYP2D6) | inhibition of CYP3A4 (in words) (CYP3A4; 10 μM) |
| --- | --- | --- | --- | --- | --- |
| Nc1ccc(-c2ccc(F)cc2)cc1NC(=O)N1Cc2nccnc2C1 [Comparator A] | 27 | 34 | -22 | – | – |
| Nc1ccc(-c2ccc(F)cc2)nc1NC(=O)N1Cc2nccnc2C1 [Comparator B] | 119 | 9 | 1.5 | – | – |
| Nc1ccc(-c2cccs2)nc1NC(=O)N1Cc2nccnc2C1 [Comparator C] | 95 | 0.2 | 1 | – | – |
| Nc1ccc(-c2ccc(F)cc2)nc1NC(=O)N1Cc2cncnc2C1 [Comparator D] | 239 | 85 | 2 | significant inhibition | – |

Next, values leading:

| IC50 (HDAC1) [nM] | inhibition at 10 min, 10 µM (CYP2D6) [%] | inhibition at 5 min, 10 µM (CYP3A4) [%] | inhibition of CYP2D6 (in words) (CYP2D6) | inhibition of CYP3A4 (in words) (CYP3A4; 10 μM) | SMILES |
| --- | --- | --- | --- | --- | --- |
| 142 | 50 | -17 | significant inhibition | – | Nc1ccc(-c2cccs2)nc1NC(=O)N1Cc2cncnc2C1 [Comparator E] |
| 326 | -1 | 27 | – | – | COCc1cc2c(cn1)CN(C(=O)Nc1nc(-c3ccc(F)cc3F)ccc1N)C2 [Compound 1] |
| 133 | -5 | 1 | no significant inhibition | no significant inhibition | Cc1ncc2c(n1)CN(C(=O)Nc1nc(-c3cccs3)ccc1N)C2 [Compound 2] |
